In patent US10039816B2, “Siderophore-based immunization against gram-negative bacteria” (Massachusetts Institute of Technology, priority 2014, dated 2018):

Experiments:
[1] = test system: pro-inflammatory cytokines (IL-17, IL-22), Lcn2; type: in vivo; conditions: infected vs uninfected mice
S. Typhimurium = type: in vivo, Salmonella enterica serovar Typhimurium; conditions: for weight loss: C57BL/6 mice, 4 days after infection with 1×10^9 CFU S. Typhimurium, P=0.05
intestinal microbiota = test: Microbiota analysis (16S rDNA, Illumina MiSeq) of colon content of immunized mice; type: in vivo; conditions: for Lactobacillus spp. fraction of the microbiota: immunized, infected mice, day 4; for S. Typhimurium fraction of the intestinal microbes: mice infected with S. Typhimurium for 4 days
enterobactin (Ent) = test: ELISA for fecal anti-enterobactin IgA in immunized mice; type: in vivo, C57BL/6 mice; conditions: 14-21 days post-immunization, persisted up to 51 days post-immunization
Glu-Ent = type: in vivo; conditions: Peyer's patch cells, day 21 post-immunization; not in mock-immunized mice
salmochelin (Glu-Ent) = test: ELISA/dot blot for fecal anti-salmochelin IgA in immunized mice; type: in vivo, C57BL/6 mice; conditions: day 21 post-immunization
Ent = type: in vivo; conditions: Peyer's patch cells, day 21 post-immunization; not in mock-immunized mice
[2] = intranasal, first immunization and boost 14 days later; monitored up to 51 days; no sign of disease
Lipocalin-2 (LCN2) = Lipocalin-2 (LCN2) (Homo sapiens, UniProt P80188); conditions: e.g., sub-nanomolar or low-nanomolar for ferric enterobactin; cited from earlier work
Sequence of Lipocalin-2 (LCN2) (P80188 21-198, species assumed): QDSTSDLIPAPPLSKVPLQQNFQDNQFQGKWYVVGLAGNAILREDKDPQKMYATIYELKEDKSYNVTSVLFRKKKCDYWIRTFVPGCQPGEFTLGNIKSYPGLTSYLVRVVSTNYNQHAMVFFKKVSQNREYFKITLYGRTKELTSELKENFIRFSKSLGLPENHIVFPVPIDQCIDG

[3] = coupling reaction conditions
[4] = responders, 96 h after infection

Cholera toxin B subunit [CTB, reference compound]
expression of pro-inflammatory cytokines (IL-17, IL-22) and Lcn2 in response to infection [1]: similarly upregulated | weight loss (S. Typhimurium): ~10% | Lactobacillus spp. fraction of the microbiota (intestinal microbiota): ~19% | S. Typhimurium fraction of the intestinal microbes (intestinal microbiota): ca. 32%

CTB-Ent
expression of pro-inflammatory cytokines (IL-17, IL-22) and Lcn2 in response to infection [1]: similarly upregulated | specific anti-Ent IgA antibodies in feces (ELISA) (enterobactin (Ent)): detected | weight loss (S. Typhimurium): ~6% | bacterial burden of S. Typhimurium in the colon content (S. Typhimurium; in vivo): lower bacterial burden | Salmonella burden, Peyer's patches (S. Typhimurium; [4]): lower Salmonella burden | Salmonella burden, spleen (S. Typhimurium; [4]): lower Salmonella burden | Salmonella burden, terminal ileum (S. Typhimurium; [4]): lower Salmonella burden | spots representing Glu-Ent-antibody complexes (ELISPOT) (Glu-Ent): detected | Lactobacillus spp. fraction of the microbiota (intestinal microbiota): ~60% | S. Typhimurium fraction of the intestinal microbes (intestinal microbiota): 7% | level of Escherichia spp. (intestinal microbiota; vs low level in mock-immunized mice): further reduced | IgA binding to Glu-Ent (di-glucosylated form) in fecal samples (salmochelin (Glu-Ent)): detected | spots representing Ent-antibody complexes (ELISPOT) (Ent): detected | tolerability of the two immunizations [2]: well tolerated

salmochelins
capture by LCN2 (Lipocalin-2 (LCN2)): cannot capture

O=C(N[C@H]1COC(=O)[C@@H](NC(=O)c2cccc(O)c2O)COC(=O)[C@@H](NC(=O)c2cccc(O)c2O)COC1=O)c1cccc(O)c1O [Enterobactin, enterobactin]
hydrolysis of the trilactone ring in aqueous solution [3]: slowly undergoes hydrolysis

O=C(N[C@H]1COC(=O)[C@@H](NC(=O)c2cccc([O-])c2[O-])COC(=O)[C@@H](NC(=O)c2cccc([O-])c2[O-])COC1=O)c1cccc([O-])c1[O-].[Fe+3] [ferric enterobactin]
capture by LCN2 (Lipocalin-2 (LCN2)): high affinity
